pKi: −log10 of the molar value. Like-named read-outs stand apart in the source and are kept apart here. Blank lines part the entries; values can stand above or below the molecule they belong to.
Tests used:
[1] = biological target: T1, human adenosine A1 receptor (Homo sapiens, UniProt P30542); test: Radioligand displacement assay, human adenosine A1 receptor ([3H]DPCPX, CHOhA1R membranes); assay type: binding; conditions: n = 3; for inhibition at 10 µM: test compound 10 µM; for pKi: footnote a: tested at 1 µM, read-out: A1 Ki (bound, footnote a); for A1 displacement at 1 µM: footnote a: test compound 1 µM
T1 construct: expressed in transfected cells; host or cells: CHO cells (CHOhA1R), gift of Prof; S. J. Hill; membrane preparation
T1 sequence (P30542 1-326): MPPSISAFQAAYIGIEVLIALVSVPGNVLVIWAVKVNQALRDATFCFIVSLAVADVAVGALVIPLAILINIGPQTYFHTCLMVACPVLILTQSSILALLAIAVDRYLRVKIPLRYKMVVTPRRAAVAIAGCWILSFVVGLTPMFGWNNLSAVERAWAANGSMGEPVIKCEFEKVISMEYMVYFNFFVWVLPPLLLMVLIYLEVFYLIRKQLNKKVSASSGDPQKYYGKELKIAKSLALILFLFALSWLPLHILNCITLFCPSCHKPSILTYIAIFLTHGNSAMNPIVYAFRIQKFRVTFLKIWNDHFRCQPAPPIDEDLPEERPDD
Procedure: Chinese hamster ovary (CHO) cells stably expressing the human adenosine A1 receptor (CHOhA1R) were kindly provided by Prof. S. J. Hill and CHO cells stably expressing the human adenosine A3 receptor (CHOhA3R) were a gift from Dr. K.-N. Klotz (University of Würzburg, Germany). Chinese hamster ovary cells stably expressing the human A1-receptor (CHOhA1R) or the human A3-receptor (CHOhA3R) were grown in Dulbecco’s Modified Eagle’s Medium (DMEM) and Ham’s F12 medium (1:1) supplemented with 10% (v/v) newborn calf serum, 50 µg/mL streptomycin, 50 IU/mL penicillin, and 200 µg/mL G418 at 37 °C and 5% CO2. […] All cells were grown to 80–90% confluency and detached from plates by scraping them into 5 mL phosphate-buffered saline. Detached cells were collected and centrifuged at 200 g for 5 min. Pellets derived from 100 15 cm Ø plates were pooled and resuspended in 70 mL of ice-cold 50 mM tris(hydroxymethyl)aminomethane (Tris)-HCl buffer, pH 7.4. A Heidolph Diax 900 homogenizer was used to homogenize the cell suspension. Membranes and the cytosolic fraction were separated by centrifugation at 100,000 g in a Beckman Optima LE-80 K ultracentrifuge (Beckman Coulter, Fullerton, CA, USA) at 4 °C for 20 min. The pellet was resuspended in 35 mL of the Tris-HCl buffer, and the homogenization and centrifugation steps were repeated. Tris-HCl buffer (25 mL) was used to resuspend the pellet, and adenosine deaminase (ADA) was added (0.8 U/mL) to break down endogenous adenosine. Membranes were stored in 250 µL and 500 µL aliquots at −80 °C. Total protein concentrations were measured using the bicinchoninic acid (BCA) method.
A1 Receptor: Membrane aliquots containing 5 µg (CHOhA1R) protein were incubated in a total volume of 100 µL assay buffer (50 mM Tris-HCl, pH 7.4) at 25 °C for 1 h. […] Nonspecific binding was determined in the presence of 100 µM N^6-cyclopentyladenosine (CPA). Incubations were terminated by rapid vacuum filtration to separate the bound and free radioligand through prewetted 96-well GF/B filter plates using a PerkinElmer Filtermate-harvester (Perkin Elmer, Groningen, the Netherlands). Filters were subsequently washed 12 times with ice-cold 50 mM Tris-HCl, pH 7.4.
(§1) The plates of all four adenosine receptor assays were dried at 55 °C after which MicroscintTM-20-cocktail was added (Perkin Elmer, Groningen, The Netherlands).
(§2) All experimental data were analyzed using the non-linear regression curve fitting program GraphPad Prism 7.0 (GraphPad Software Inc., San Diego, CA, USA). IC50 values obtained from competition displacement binding data were converted into Ki values using the Cheng–Prusoff equation.

hA2B receptor = biological target: T2, hA2B receptor (Homo sapiens, UniProt P29275); test: Radioligand displacement assay, human adenosine A2B receptor ([3H]PSB-603, CHO-spap-hA2BR membranes); assay type: binding; conditions: n = 3; for A2B displacement at 1 µM: footnote a: test compound 1 µM
T2 construct: expressed in transfected cells; host or cells: CHO-spap cells (CHO-spap-hA2BR), from S. J. Dowell (GlaxoSmithKline); membrane preparation
T2 sequence (P29275 1-332): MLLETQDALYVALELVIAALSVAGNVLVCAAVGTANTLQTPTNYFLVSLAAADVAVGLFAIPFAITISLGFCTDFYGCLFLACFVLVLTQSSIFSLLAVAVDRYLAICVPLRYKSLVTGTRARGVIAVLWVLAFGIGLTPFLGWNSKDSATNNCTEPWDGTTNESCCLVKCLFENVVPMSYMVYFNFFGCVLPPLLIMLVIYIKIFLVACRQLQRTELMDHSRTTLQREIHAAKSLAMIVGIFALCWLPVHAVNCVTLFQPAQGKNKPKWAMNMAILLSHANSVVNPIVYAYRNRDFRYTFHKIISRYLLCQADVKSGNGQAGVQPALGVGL
Procedure: Human embryonic kidney 293 cells stably expressing the human adenosine A2A receptor (HEK293hA2AR) were kindly provided by Dr. J. Wang (Biogen/IDEC, Cambridge, MA, USA), CHO-spap cells stably expressing the wild-type (WT) hA2B receptor (CHO-spap-hA2BR) were kindly provided by S. J. Dowell (GlaxoSmithKline, Brentfort, UK).
Chinese hamster ovary cells stably expressing the […] and a reporter gene, the secreted placental alkaline phosphatase, (CHO-spap-hA2BR) were grown in DMEM and Ham’s F12 medium (1:1) supplemented with 10% (v/v) newborn calf serum, 100 µg/mL streptomycin, 100 IU/mL penicillin, 1 mg/mL G418, and 0.4 mg/mL hygromycin at 37 °C and 5% CO2.
All cells were grown to 80–90% confluency and detached from plates by scraping them into 5 mL phosphate-buffered saline. Detached cells were collected and centrifuged at 200 g for 5 min. Pellets derived from 100 15 cm Ø plates were pooled and resuspended in 70 mL of ice-cold 50 mM tris(hydroxymethyl)aminomethane (Tris)-HCl buffer, pH 7.4. A Heidolph Diax 900 homogenizer was used to homogenize the cell suspension. Membranes and the cytosolic fraction were separated by centrifugation at 100,000 g in a Beckman Optima LE-80 K ultracentrifuge (Beckman Coulter, Fullerton, CA, USA) at 4 °C for 20 min. The pellet was resuspended in 35 mL of the Tris-HCl buffer, and the homogenization and centrifugation steps were repeated. Tris-HCl buffer (25 mL) was used to resuspend the pellet, and adenosine deaminase (ADA) was added (0.8 U/mL) to break down endogenous adenosine. Membranes were stored in 250 µL and 500 µL aliquots at −80 °C. Total protein concentrations were measured using the bicinchoninic acid (BCA) method.
A2B Receptor: Membrane aliquots containing 30 µg (CHO-spap-hA2BR) total protein were incubated in a total volume of 100 µL assay buffer (0.1% CHAPS in 50 mM TrisHCl, pH 7.4) at 25 °C for 2 h. […] Nonspecific binding was determined in the presence of 10 µM ZM241385. Incubations were terminated by rapid vacuum filtration to separate the bound and free radioligand through prewetted 96-well GF/B filter plates using a PerkinElmer Filtermate-harvester (Perkin Elmer, Groningen, the Netherlands). Filters were subsequently washed 12 times with ice-cold 0.1% BSA in 50 mM Tris-HCl, pH 7.4.
as §1, §2

[2] = [3H]PSB-603, read-out: A2B Ki ± SEM
[3] = footnote a: tested at 1 µM, read-out: A2B Ki (bound, footnote a)

Structure (SMILES): CSc1nc(N)c2ncn([C@H]3[C@H](O)[C@H](O)[C@]4(Cn5cc(CN)nn5)C[C@H]34)c2n1 [Compound 43, (1R,2R,3S,4R,5S)-4-(6-Amino-2-methylthio-9H-purin-9-yl)-1-{[4-(aminomethyl)-1H-1,2,3-triazol-1-yl]methyl}bicyclo[3.1.0]hexane-2,3-diol]
inhibition at 10 µM [1]: 5%
pKi (hA2B receptor; [2]): < 5.00

Structure (SMILES): CSc1nc(N)c2ncn([C@H]3[C@H](O)[C@H](O)[C@]4(Cn5cc(C(=O)O)nn5)C[C@H]34)c2n1 [Compound 44, 1-{[(1R,2R,3S,4R,5S)-4-(6-Amino-2-methylthio-9H-purin-9-yl)-2,3-dihydroxybicyclo[3.1.0]hex-1-yl]methyl}-1H-1,2,3-triazole-4-carboxylic acid]
pKi [1]: < 6.00
A2B displacement at 1 µM (hA2B receptor): 2% ^a

Structure (SMILES): CSc1nc(N)c2ncn([C@H]3[C@H](O)[C@H](O)[C@]4(Cn5cc(CCC(=O)O)nn5)C[C@H]34)c2n1 [Compound 46]
pKi [1]: < 6.00
A2B displacement at 1 µM (hA2B receptor): 1% ^a

The remaining lines, values ahead:

inhibition at 10 µM [1]: 19%
pKi (hA2B receptor; [2]): < 5.00
Structure (SMILES): COC(=O)CCc1cn(C[C@@]23C[C@@H]2[C@@H](n2cnc4c(N)nc(SC)nc42)[C@H](O)[C@@H]3O)nn1 [Compound 42, Methyl 3-(1-{[(1R,2R,3S,4R,5S)-4-(6-amino-2-methylthio-9H-purin-9-yl)-2,3-dihydroxybicyclo[3.1.0]hex-1-yl]methyl}-1H-1,2,3-triazol-4-yl)propanoate]

pKi [1]: < 6.00
A2B displacement at 1 µM (hA2B receptor): 5% ^a
Structure (SMILES): CSc1nc(N)c2ncn([C@H]3[C@H](O)[C@H](O)[C@]4(Cn5cc(CC(=O)O)nn5)C[C@H]34)c2n1 [Compound 45, 2-(1-{[(1R,2R,3S,4R,5S)-4-(6-Amino-2-methylthio-9H-purin-9-yl)-2,3-dihydroxybicyclo[3.1.0]hex-1-yl]methyl}-1H-1,2,3-triazol-4-yl)acetic acid]

A1 displacement at 1 µM [1]: 1% ^a
pKi (hA2B receptor; [3]): < 6.00
Structure (SMILES): CCN(CC)CC.CSc1nc(N)c2ncn([C@H]3[C@H](O)[C@H](O)[C@]4(CNc5c(O)c(=O)c5=O)C[C@H]34)c2n1 [Compound 47, Triethylammonium 2-{[(1R,2R,3S,4R,5S)-4-(6-Amino-2-methylthio-9H-purin-9-yl)-2,3-dihydroxybicyclo[3.1.0]hex-1-yl]methyl}amino-3,4-dioxocyclobut-1-en-1-olate]

A1 displacement at 1 µM [1]: 3% ^a
pKi (hA2B receptor; [3]): < 6.00
Structure (SMILES): CCN(CC)CC.CSc1nc(N)c2ncn([C@H]3[C@H](O)[C@H](O)[C@]4(CNS(=O)(=O)CC(=O)O)C[C@H]34)c2n1 [Compound 48, Triethylammonium 2-(N-{[(1R,2R,3S,4R,5S)-4-(6-amino-2-methylthio-9H-purin-9-yl)-2,3-dihydroxybicyclo[3.1.0]hex-1-yl]methyl}sulfamoyl)acetate]

Source: publication PMC9000336, “Development of Bicyclo[3.1.0]hexane-Based A3 Receptor Ligands: Closing the Gaps in the Structure–Affinity Relationships” (Molecules, 2022)
